These results are taken from US9109004B2, “Progesterone receptor antagonists” (Bayer Intellectual Property GmbH, priority 2010, dated 2015).

Structures are written as SMILES. pIC50: −log10 of the molar value.

The target of the test is T1, human progesterone receptor A (Homo sapiens, UniProt P06401).
T1 construct: expressed in transfected cells; host or cells: SK-N-MC human neuroblastoma cells, stably transfected
T1 sequence (P06401 1-769 isoform P06401-2): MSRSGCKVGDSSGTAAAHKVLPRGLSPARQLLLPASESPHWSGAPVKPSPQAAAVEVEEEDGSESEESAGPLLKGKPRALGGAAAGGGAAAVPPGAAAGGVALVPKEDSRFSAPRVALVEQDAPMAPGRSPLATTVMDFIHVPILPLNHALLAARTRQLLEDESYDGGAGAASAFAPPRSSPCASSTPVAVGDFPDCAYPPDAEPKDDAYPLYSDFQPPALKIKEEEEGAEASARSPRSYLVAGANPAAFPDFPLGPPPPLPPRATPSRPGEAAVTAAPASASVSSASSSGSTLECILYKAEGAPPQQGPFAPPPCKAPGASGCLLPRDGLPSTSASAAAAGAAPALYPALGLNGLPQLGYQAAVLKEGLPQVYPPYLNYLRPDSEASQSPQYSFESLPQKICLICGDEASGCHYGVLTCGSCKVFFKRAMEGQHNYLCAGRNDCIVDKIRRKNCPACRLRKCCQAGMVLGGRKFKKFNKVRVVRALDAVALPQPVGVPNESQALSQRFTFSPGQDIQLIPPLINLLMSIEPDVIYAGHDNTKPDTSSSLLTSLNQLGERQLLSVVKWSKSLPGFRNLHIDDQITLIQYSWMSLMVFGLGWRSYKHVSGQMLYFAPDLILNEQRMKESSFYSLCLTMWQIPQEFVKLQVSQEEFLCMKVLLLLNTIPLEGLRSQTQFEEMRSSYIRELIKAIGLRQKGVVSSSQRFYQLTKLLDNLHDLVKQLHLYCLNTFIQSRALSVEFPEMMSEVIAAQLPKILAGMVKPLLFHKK
The test can be described thus: Progesterone-receptor-antagonistic action in stably transfected SK-N-MC cells, MTV-LUC reporter (PR-A). The conditions noted are these: antagonistic potency vs 0.1 nmol/l promegestone, 24 hours, luciferase. Type of test: cell-based. In short, it runs like this: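 SK-N-MC neuroblastoma cells stably expressing human PR-B or PR-A plus MMTV-LUC reporter, treated 24 h with 0.1 nmol/l promegestone plus test compound at 0.01 nmol/l–1 μmol/l. Luciferase in lysates read as RLU; values as % efficacy and IC50.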
Regarding `CN(CCc1ccccc1)C(=O)c1ccc([C@H]2C[C@@]3(C)[C@@H](CC[C@@]3(O)C(F)(F)C(F)(F)F)[C@@H]3CCC4=CC(=O)CCC4=C32)cc1` [Example 43, 4-[(11β,17β)-17-hydroxy-3-oxo-17-(pentafluoroethyl)estra-4,9-dien-11-yl]-N-methyl-N-(2-phenylethyl)benzamide], the pIC50 was 7.97.

Compound `COc1ccc(CNC(=O)c2ccc([C@H]3C[C@@]4(C)[C@@H](CC[C@@]4(O)C(F)(F)C(F)(F)F)[C@@H]4CCC5=CC(=O)CCC5=C43)cc2)cc1` [Example 35, 4-[(11β,17β)-17-hydroxy-3-oxo-17-(pentafluoroethyl)estra-4,9-dien-11-yl]-N-(4-methoxybenzyl)benzamide] gave a pIC50 of 7.47.

On to `C[C@]12C[C@H](c3ccc(C(=O)N4CCN(CCc5ccccc5)CC4)cc3)C3=C4CCC(=O)C=C4CC[C@H]3[C@@H]1CC[C@@]2(O)C(F)(F)C(F)(F)F` [Example 44, (11β,17β)-17-hydroxy-17-(pentafluoroethyl)-11-(4-{[4-(2-phenylethyl)piperazin-1-yl]carbonyl}phenyl)estra-4,9-dien-3-one], for which the pIC50 is 7.60.

For `C[C@]12C[C@H](c3ccc(C(=O)NCCc4ccncc4)cc3)C3=C4CCC(=O)C=C4CC[C@H]3[C@@H]1CC[C@@]2(O)C(F)(F)C(F)(F)F` [Example 64, 4-[(11β,17β)-17-hydroxy-3-oxo-17-(pentafluoroethyl)estra-4,9-dien-11-yl]-N-[2-(pyridin-4-yl)ethyl]benzamide], the pIC50 was 8.96.

Compound `COC(=O)N1CCN(C(=O)c2ccc([C@H]3C[C@@]4(C)[C@@H](CC[C@@]4(O)C(F)(F)C(F)(F)F)[C@@H]4CCC5=CC(=O)CCC5=C43)cc2)CC1` [Example 70, methyl-4-{4-[(11β,17β)-17-hydroxy-3-oxo-17-(pentafluoroethyl)estra-4,9-dien-11-yl]benzoyl}piperazine-1-carboxylate] gave a pIC50 of 8.77.

The compound `C[C@]12C[C@H](c3ccc(C(=O)NCc4ccc(S(N)(=O)=O)cc4)cc3)C3=C4CCC(=O)C=C4CC[C@H]3[C@@H]1CC[C@@]2(O)C(F)(F)C(F)(F)F` [Example 18, 4-[(11β,17β)-17-hydroxy-3-oxo-17-(pentafluoroethyl)estra-4,9-dien-11-yl]-N-(4-sulphamoylbenzyl)benzamide] had a pIC50 of 8.33.

Compound `C[C@]12C[C@H](c3ccc(C(=O)N4CCN(Cc5ccccn5)CC4)cc3)C3=C4CCC(=O)C=C4CC[C@H]3[C@@H]1CC[C@@]2(O)C(F)(F)C(F)(F)F` [Example 68, (11β,17β)-17-hydroxy-17-(pentafluoroethyl)-11-(4-{[4-(pyridin-2-ylmethyl)piperazin-1-yl]carbonyl}phenyl)estra-4,9-dien-3-one] showed a pIC50 of 7.80.

Regarding `CN(CCc1ccccn1)C(=O)c1ccc([C@H]2C[C@@]3(C)[C@@H](CC[C@@]3(O)C(F)(F)C(F)(F)F)[C@@H]3CCC4=CC(=O)CCC4=C32)cc1` [Example 50, 4-[(11β,17β)-17-hydroxy-3-oxo-17-(pentafluoroethyl)estra-4,9-dien-11-yl]-N-methyl-N-[2-(pyridin-2-yl)ethyl]benzamide], the pIC50 is 7.80.

Take `CN(C(=O)c1ccc([C@H]2C[C@@]3(C)[C@@H](CC[C@@]3(O)C(F)(F)C(F)(F)F)[C@@H]3CCC4=CC(=O)CCC4=C32)cc1)c1ccccc1` [Example 28, 4-[(11β,17β)-17-hydroxy-3-oxo-17-(pentafluoroethyl)estra-4,9-dien-11-yl]-N-methyl-N-phenylbenzamide]: the pIC50 was 7.20.

In the case of `CN(C)CCN1CCN(C(=O)c2ccc([C@H]3C[C@@]4(C)[C@@H](CC[C@@]4(O)C(F)(F)C(F)(F)F)[C@@H]4CCC5=CC(=O)CCC5=C43)cc2)CC1` [Example 47, (11β,17β)-11-[4-({4-[2-(dimethylamino)ethyl]piperazin-1-yl}carbonyl)phenyl]-17-hydroxy-17-(pentafluoroethyl)estra-4,9-dien-3-one], the pIC50 is 6.46.

The compound `C[C@]12C[C@H](c3ccc(C(=O)N4CCC(c5ccccc5)CC4)cc3)C3=C4CCC(=O)C=C4CC[C@H]3[C@@H]1CC[C@@]2(O)C(F)(F)C(F)(F)F` [Example 63, (11β,17β)-17-hydroxy-17-(pentafluoroethyl)-11-{4-[(4-phenylpiperidin-1-yl)carbonyl]phenyl}estra-4,9-dien-3-one] gave a pIC50 of 8.39.

Turning to `CN(Cc1cccnc1)C(=O)c1ccc([C@H]2C[C@@]3(C)[C@@H](CC[C@@]3(O)C(F)(F)C(F)(F)F)[C@@H]3CCC4=CC(=O)CCC4=C32)cc1` [Example 32, 4-[(11β,17β)-17-hydroxy-3-oxo-17-(pentafluoroethyl)estra-4,9-dien-11-yl]-N-methyl-N-(pyridin-3-ylmethyl)benzamide], the pIC50 is 6.43.

On to `C[C@]12C[C@H](c3ccc(C(=O)N4CCOCC4)cc3)C3=C4CCC(=O)C=C4CC[C@H]3[C@@H]1CC[C@@]2(O)C(F)(F)C(F)(F)F` [Example 29, (11β,17β)-17-hydroxy-11-[4-(morpholin-4-ylcarbonyl)phenyl]-17-(pentafluoroethyl)estra-4,9-dien-3-one], for which the pIC50 is 7.41.

Regarding `C[C@]12C[C@H](c3ccc(C(=O)Nc4ccc(C(N)=O)cc4)cc3)C3=C4CCC(=O)C=C4CC[C@H]3[C@@H]1CC[C@@]2(O)C(F)(F)C(F)(F)F` [Example 41, N-(4-carbamoylphenyl)-4-[(11β,17β)-17-hydroxy-3-oxo-17-(pentafluoroethyl)estra-4,9-dien-11-yl]benzamide], the negative logarithm of the IC50 (pIC50) was 8.33.

`C[C@]12C[C@H](c3ccc(C(=O)Nc4cccnc4)cc3)C3=C4CCC(=O)C=C4CC[C@H]3[C@@H]1CC[C@@]2(O)C(F)(F)C(F)(F)F` [Example 12, 4-[(11β,17β)-17-hydroxy-3-oxo-17-(pentafluoroethyl)estra-4,9-dien-11-yl]-N-(pyridin-3-yl)benzamide] had a pIC50 of 8.88.

Regarding `CCN(CC)C(=O)c1ccc([C@H]2C[C@@]3(C)[C@@H](CC[C@@]3(O)C(F)(F)C(F)(F)F)[C@@H]3CCC4=CC(=O)CCC4=C32)cc1` [Example 27, N,N-diethyl-4-[(11β,17β)-17-hydroxy-3-oxo-17-(pentafluoroethyl)estra-4,9-dien-11-yl]benzamide], the negative logarithm of the IC50 (pIC50) is 6.88.

`C[C@]12C[C@H](c3ccc(C(=O)N4CCN(C(=O)c5ccccc5)CC4)cc3)C3=C4CCC(=O)C=C4CC[C@H]3[C@@H]1CC[C@@]2(O)C(F)(F)C(F)(F)F` [Example 65, (11β,17β)-11-{4-[(4-benzoylpiperazin-1-yl)carbonyl]phenyl}-17-hydroxy-17-(pentafluoroethyl)estra-4,9-dien-3-one] had a pIC50 of 8.57.
